Source: patent US20210128730A1, “METHODS FOR TREATING TUMORS” (NH THERAGUIX, priority 2017, published 2021)
Residues, ends and D or L forms follow the SMILES beside them. *: point of attachment. Cbz = O=C(OCc1ccccc1)*; CH2F = FC*

What was measured:
Type in all cases: cell-based, human
p21 = p21 expression by fluorescence microscopy and immunoblot; conditions: HCT116 treated with XR alone or GdBN+XR
Experimental: (§1) HCT116 cells were seeded in 6-well plates and incubated at 37° C. during 1 hour with indicated concentrations of GdBN. Then, cells were irradiated with X-ray irradiator (1 Gy/min, 200 keV, 15 mA, 2 mm copper thickness, X-RAD 320, Precision X-Ray) or with gamma-ray irradiator (IBL-637, Cs^137, 1 Gy/min, gamma CIS-BioInternational, IBA, Saclay, France). Cells were harvested at indicated time points after irradiation for subsequent experiments. Cellular cannibalism was determined as previously described^13. […] Cells are then co-cultured for the indicated time, in presence of the pharmacological inhibitor of ROCK, Y27632 (30 μM, TOCRIS) or the pan-caspase inhibitor, zVAD-fmk (100 μM, Calbiochem). […] Cells were counterstained with Hoechst 33342 (Invitrogen) and analyzed by fluorescent confocal microscopy on a Zeiss LSM510 or by fluorescent microscopy on a LEICA DMi8 using a 63× objective. […] Cytofluorometric determinations were carried out on Guava EasyCyte (Millipore EMD) and data were analyzed by means with Incyte software (Millipore). Cell cycle distributions were assessed with 10 μg/ml of Hoechst 33342 (Invitrogen), as previously described^14. Cell fluorescence was quantified using LSR II™ flow cytometer (Becton-Dickinson). Fluorescence histograms were analyzed with Kaluza software version 1.5. […]

HCT116 cells [1] = test: Cellular cannibalism (cell engulfment) in CMTMR/CMFDA co-culture, confocal microscopy
Experimental: as §1

ROCK1 = ROCK1 activation by immunoblot of MLC2 serine 19 phosphorylation (MLC2S19*); conditions: 30 μM Y27632, 24 hours; XR- or GdBN+XR-treated HCT116
Experimental: Total cell lysates were prepared in lysis buffer (0,1% NP40 ; 200 mM HEPES ; 100 mM KCl; 1 mM EDTA; 1% Glycerol final concentration) supplemented with proteases and phosphatases inhibitors cocktail (EDTA-free inhibitors, Roche-diagnostics, Meylan, France). Protein extracts were quantified using the Bradford assay (Bio-Rad Laboratories, Hercules, Calif., USA). Protein extracts (20-40 μg) were run onto 4-12% NuPAGE Bis-tris gel (Invitrogen) and transferred onto nitrocellulose membrane at 4° C.

HCT116 cells [2] = test: Engulfed (target) cell degradation: chromatin condensation and nuclear fragmentation by fluorescence microscopy; conditions: 100 μM Z-VAD-fmk; XR or GdBN+XR
Experimental: Cellular cannibalism was determined as previously described^13. Briefly, treated cells were stained with 10 μM of 5-(and-6)-(((4-Chloromethyl)Benzoyl)Amino)Tetramethylrhodamine (Cell Tracker Orange CMTMR, Invitrogen) and untreated cells were stained with 10 μM of 5-chloromethylfluorescein diacetate (Cell tracker Green CMFDA, Invitrogen). Cells are then co-cultured for the indicated time, in presence of the pharmacological inhibitor of ROCK, Y27632 (30 μM, TOCRIS) or the pan-caspase inhibitor, zVAD-fmk (100 μM, Calbiochem). […] Cells were counterstained with Hoechst 33342 (Invitrogen) and analyzed by fluorescent confocal microscopy on a Zeiss LSM510 or by fluorescent microscopy on a LEICA DMi8 using a 63× objective. […] Cytofluorometric determinations were carried out on Guava EasyCyte (Millipore EMD) and data were analyzed by means with Incyte software (Millipore). Cell cycle distributions were assessed with 10 μg/ml of Hoechst 33342 (Invitrogen), as previously described^14. Cell fluorescence was quantified using LSR II™ flow cytometer (Becton-Dickinson). Fluorescence histograms were analyzed with Kaluza software version 1.5. […]

O=C(O)c1ccc(-c2c3nc(c(-c4ccc(C(=O)O)cc4)c4ccc([n-]4)c(-c4ccc(C(=O)O)cc4)c4nc(c(-c5ccc(C(=O)O)cc5)c5ccc2[n-]5)C=C4)C=C3)cc1.[Mn+3] [MnTBAP, Manganese (III)-tetrakis(4-benzoic acid) porphyrin]
effect on cellular senescence (p21 expression, immunoblot) (p21; 10 μM MnTBAP): reduced the cellular senescence

CC(=O)N[C@@H](CS)C(=O)O [NAC, N-acetylcysteine]
effect on cellular senescence (p21 expression, immunoblot) (p21; 100 μM NAC): reduced the cellular senescence

C[C@@H](N)[C@H]1CC[C@H](C(=O)Nc2ccncc2)CC1 [Y27632]
effect on cellular cannibalism (HCT116 cells [1]; 30 μM Y27632, after 6 Gy alone and after 6 Gy with 1.2 mM GdBN, 24 hours co-culture): inhibited the cellular cannibalism | inhibition of ROCK1 (MLC2S19* immunoblot) (ROCK1): inhibition of ROCK1

COC(=O)C[C@H](NC(=O)[C@H](C)NC(=O)[C@@H](NC(=O)OCc1ccccc1)C(C)C)C(=O)CF [Z-VAD-fmk, benzyloxycarboxyl-Val-Ala-Asp (OMe) fluoromethylketone] (Cbz-Val-Ala-Asp(OMe)-CH2F)
effect on target cell degradation (HCT116 cells [2]): failed to repress target cell degradation | effect on cellular engulfment (HCT116 cells [1]; 100 μM Z-VAD-fmk, after XR or GdBN+XR, 24 h culture): not inhibited
